Laboratory results: patent US20240166660A1, “KRAS G12C INHIBITORS” (BeiGene Switzerland GmbH, priority 2021, published 2024)

Each compound was assayed against KRAS (aa 1-169) G12C, C51S, C80L, C118S (Homo sapiens (Human), UniProt P01116, C118S/C51S/C80L/G12C) (assay: Biochemical functional assay: SOS1-mediated nucleotide exchange of GDP-loaded KRAS G12C, binding to GST-cRaf RBD, FRET readout). Conditions: 3 hrs pre-incubation with compound at 24° C., SOS1, GTPyS, inhibition of nucleotide exchange.
Sequence of KRAS (aa 1-169) G12C, C51S, C80L, C118S (P01116 other isoform, or with tags, fused parts or gaps G12C/C51S/C80L/C118S): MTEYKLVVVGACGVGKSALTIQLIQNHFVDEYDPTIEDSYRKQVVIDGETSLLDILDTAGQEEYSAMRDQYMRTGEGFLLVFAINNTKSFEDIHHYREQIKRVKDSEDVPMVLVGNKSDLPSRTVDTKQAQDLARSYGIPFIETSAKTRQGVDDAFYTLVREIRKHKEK
Procedure: Biochemical Functional Assay
The KRAS (aa 1-169) G12C, C51S, C80L, C118S with a His-tag was expressed, purified and loaded with GDP in house. All protein and substrate solutions were prepared in assay buffer containing 25 mM HEPES pH7.5, 10 mM MgCl2, and 0.01% Triton X-100. Purified GDP-loaded KRAS (aa 1-169) G12C, C51S, C80L, C118S protein was pre-incubated with a serially diluted compound at 24° C. for 3 hrs. Purified SOS1 (aa 564-1049) protein, GTPyS (Sigma) and GST-cRaf RBD (aa 1-149) were then added to each well and incubated at 24° C. for additional 3 hrs. […] Following the incubation, Mab Anti-6HIS-T cryptate (Cisbio) and Mab Anti GST-XL665 (Cisbio) were added and further incubated at 24° C. for 3 hrs. The binding interaction between active GTPyS KRAS G12C and GST-cRaf RBD brings the Tb and XL665 into close proximity enabling an increased FRET signal (Ex337 nm, Em665 nm/620 nm). The inhibition percentage of nucleotide exchange reaction in presence of increasing concentrations of compounds was calculated based on the ratio of fluorescence at 665 nm to that at 620 nm detected on a BMG PHERAstar FSX instrument. The IC50 value of each compound was calculated from fitting the data to the four-parameter logistic model by Dotmatics.

| SMILES | IC50 [nM] |
| --- | --- |
| C=C(F)C(=O)N1CCN(c2nc(OCC3C[C@@H](OC)CN3C)nc3cc(-c4cccc5cccc(Cl)c45)c4c(c23)OCCC4)C[C@@H]1CC#N (mixture of isomers) [Compound B93, 2-((2S)-4-(5-(8-chloronaphthalen-1-yl)-8-(((4R)-4-methoxy-1-methylpyrrolidin-2-yl)methoxy)-3,4-dihydro-2H-pyrano[2,3-f]quinazolin-10-yl)-1-(2-fluoroacryloyl)piperazin-2-yl)acetonitrile] | 11 |
| C=CC(=O)N1CCN(c2ncnc3cc(-c4c(Cl)ccc5[nH]ncc45)c4c(c23)OCCC4)C[C@@H]1CC#N (single isomer, unassigned) [Compound A14] | 79.4 |
| C=CC(=O)N1CCN(c2ncnc3cc(-c4c(Cl)ccc5[nH]ncc45)c4c(c23)OCCC4)C[C@@H]1CC#N (single isomer, unassigned) [Compound A15] | 92.6 |
| C=C(F)C(=O)N1CCN(c2nc(OC[C@@H]3CCCN3C)nc3cc(-c4cccc5cccc(Cl)c45)c4c(c23)OCCC4)C[C@@H]1CC#N (single isomer, unassigned) [Compound B67] | 4.6 |
| C=C(F)C(=O)N1CCN(c2nc(OC[C@@H]3CCCN3C)nc3cc(-c4cccc5cccc(Cl)c45)c4c(c23)OCCC4)C[C@@H]1CC#N (single isomer, unassigned) [Compound B68] | 177 |
| C=C(F)C(=O)N1CCN(c2nc(N3CC(CC#N)(N(C)C)C3)nc3cc(-c4cccc5cccc(Cl)c45)c4c(c23)OCCC4)C[C@@H]1CC#N (single isomer, unassigned) [Compound B91] | 15 |
| C=C(F)C(=O)N1CCN(c2nc(N3CC(CC#N)(N(C)C)C3)nc3cc(-c4cccc5cccc(Cl)c45)c4c(c23)OCCC4)C[C@@H]1CC#N (single isomer, unassigned) [Compound B92] | 381 |
| C=C(F)C(=O)N1CCN(c2nc(OCC3C[C@@H](OC)CN3C)nc3cc(-c4cccc5cccc(Cl)c45)c4c(c23)OCCC4)C[C@@H]1CC#N (single isomer, unassigned) [Compound B94] | 4.63 |
| C=C(F)C(=O)N1CCN(c2nc(OCC3C[C@@H](OC)CN3C)nc3cc(-c4cccc5cccc(Cl)c45)c4c(c23)OCCC4)C[C@@H]1CC#N (single isomer, unassigned) [Compound B95] | 11.5 |
| C=C(F)C(=O)N1CCN(c2nc(OCC3C[C@@H](OC)CN3C)nc3cc(-c4cccc5cccc(Cl)c45)c4c(c23)OCCC4)C[C@@H]1CC#N (single isomer, unassigned) [Compound B96] | 140 |
| C=C(F)C(=O)N1CCN(c2nc(OCC3C[C@@H](OC)CN3C)nc3cc(-c4cccc5cccc(Cl)c45)c4c(c23)OCCC4)C[C@@H]1CC#N (single isomer, unassigned) [Compound B97] | 508 |
| C=C(F)C(=O)N1CCN(c2nc(N3CC(N(C)C)C3)nc3cc(-c4cccc5cccc(Cl)c45)c4c(c23)OCCC4)C[C@@H]1CC#N (single isomer, unassigned) [Compound B101] | 6.53 |
| C=C(F)C(=O)N1CCN(c2nc(N3CC(N(C)C)C3)nc3cc(-c4cccc5cccc(Cl)c45)c4c(c23)OCCC4)C[C@@H]1CC#N (single isomer, unassigned) [Compound B102] | 354 |
| C=C(F)C(=O)N1CCN(c2nc(OC[C@H]3CCCN3C)nc3cc(-c4cccc5cccc(Cl)c45)c4c(c23)OCCC4)C[C@@H]1CC#N (single isomer, unassigned) [Compound B104] | 8.16 |
| C=C(F)C(=O)N1CCN(c2nc(OC[C@H]3CCCN3C)nc3cc(-c4cccc5cccc(Cl)c45)c4c(c23)OCCC4)C[C@@H]1CC#N (single isomer, unassigned) [Compound B105] | 290 |
| C=C(F)C(=O)N1CCN(c2nc(OC[C@H]3C[C@@H](OC)CN3C)nc3cc(-c4cccc5cccc(Cl)c45)c4c(c23)OCCC4)C[C@@H]1CC#N (single isomer, unassigned) [Compound B106] | 9.54 |
| C=C(F)C(=O)N1CCN(c2nc(OC[C@H]3C[C@@H](OC)CN3C)nc3cc(-c4cccc5cccc(Cl)c45)c4c(c23)OCCC4)C[C@@H]1CC#N (single isomer, unassigned) [Compound B107] | 3.26 |
